# How the values were obtained:
# ACC = conditions: mice treated with fatty acid synthase inhibitors; cited from earlier work
# [1] = system: soleus muscles of Acc2-/- mutant mice; assay: [3H]palmitate oxidation in isolated soleus muscle of Acc2-/- mutant mice; type: cell-based, mouse; conditions: 30 min, 37° C.
# Method: Where indicated, insulin (10 nM) or isoproterenol (3 mM) was added, and the vials were incubated at 37° C. under a humidified O2/CO2 (95/5%) atmosphere for 30 min. At the end of the incubation period, the [^3H]2O was separated from the labeled substrate and counted. To provide further evidence for the role of ACC2-synthesized malonyl-CoA as the regulator of fatty acid oxidation, fatty acid oxidation was investigated in the mouse soleus muscle, a […] muscle tissue responsive to hormonal regulation ([…]., Gamble, J., Patel, A., Kemp, […]., and Ruderman, W. B., J Biol Chem., 272:13255-13261 1997; Alam, N., and E. D. Saggerson. Biochem J., 334:233-41, 1998; […]., and […]. Proc Natl Acad Sci. USA 92, 4011-4015, 1995; […]., and […] Biol Chem. 272, 10669-10677, 1997; -Ha, J., J. K. Lee, […], and K.-H. Him. Proc Natl Acad Sci USA. 93:11466-11470, 1996; Rasmussen, B. B. and Wolfe, R. R., Ann. Rev. Natr. 19:463, 1999; and, Bressler, R. and […] Biol Chem. 236:1643-1651, 1961). […] Insulin is known to activate both ACC1 and ACC2 and, thereby, to induce fatty acid synthesis and inhibit fatty acid oxidation, respectively. […] Faseb J. 3:2250-2256, 1989; Thampy, K. G., and […]. Biol. Chem. 263, 6454-6458, 1988; […]., and […]. Biol. Chem. 265, 6330-6338, 1990; Mohamed, A. H., W. Y. Huang, W. Huang, K. V. Venkatachalam, and […] Biol Chem. 269:6859-6865. 1994; and, Hardie, D. G. Prog Lipid Res. 28:117-146, 1989). The role of ACC2 in the regulation of mitochondrial oxidation of fatty acids was further confirmed by using isoproterenol, an analog of glucagon, which produces effects opposite of those of insulin. Adding isoproterenol to wild-type soleus muscle increased palmitate oxidation by 50% (FIG. 4), raising it to nearly the same level as that found in the mutant muscle cells. […] This additional increase may be due to factors independent of malonyl-CoA ([…]. Lopez-[…]. Bai, X. Luo, and M. E. Pape. Faseb J. 3:2250-2256, 1989).
# [2] = system: soleus muscles of wild-type (Acc2+/+) mice; assay: [3H]palmitate oxidation in isolated soleus muscle of wild-type mice; type: cell-based, mouse; conditions: isoproterenol 3 mM, 30 min, 37° C.
# Method: Where indicated, insulin (10 nM) or isoproterenol (3 mM) was added, and the vials were incubated at 37° C. under a humidified O2/CO2 (95/5%) atmosphere for 30 min. At the end of the incubation period, the [^3H]2O was separated from the labeled substrate and counted. To provide further evidence for the role of ACC2-synthesized malonyl-CoA as the regulator of fatty acid oxidation, fatty acid oxidation was investigated in the mouse soleus muscle, a […] muscle tissue responsive to hormonal regulation ([…]., Gamble, J., Patel, A., Kemp, […]., and Ruderman, W. B., J Biol Chem., 272:13255-13261 1997; Alam, N., and E. D. Saggerson. Biochem J., 334:233-41, 1998; […]., and […]. Proc Natl Acad Sci. USA 92, 4011-4015, 1995; […]., and […] Biol Chem. 272, 10669-10677, 1997; -Ha, J., J. K. Lee, […], and K.-H. Him. Proc Natl Acad Sci USA. 93:11466-11470, 1996; Rasmussen, B. B. and Wolfe, R. R., Ann. Rev. Natr. 19:463, 1999; and, Bressler, R. and […] Biol Chem. 236:1643-1651, 1961). […] Insulin is known to activate both ACC1 and ACC2 and, thereby, to induce fatty acid synthesis and inhibit fatty acid oxidation, respectively. […] Faseb J. 3:2250-2256, 1989; Thampy, K. G., and […]. Biol. Chem. 263, 6454-6458, 1988; […]., and […]. Biol. Chem. 265, 6330-6338, 1990; Mohamed, A. H., W. Y. Huang, W. Huang, K. V. Venkatachalam, and […] Biol Chem. 269:6859-6865. […]
compound,measurement,setting,value
CCCCCCCCCCCCCCOc1ccc(C(=O)O)o1 [5-(tetradeculoxy)-2 furoic acid],effect on food uptake,ACC,increases food uptake
CC(C)NCC(O)c1ccc(O)c(O)c1 (centres unmarked) [isoproterenol],effect on fatty acid oxidation,[1]; isoproterenol 3 mM,further increased
same,effect on fatty acid oxidation,"[1]; isoproterenol 3 mM, listed as Isoproterenol",little effect
same,increase of fatty acid (palmitate) oxidation,[2],50%
insulin,effect on fatty acid oxidation,[1]; insulin 10 nM,did not affect
